Test [1] addresses Human HDAC-1 (Homo sapiens, UniProt Q13547). The test is described as follows: Human HDAC-1 Assay 2: Boc-Lys(Ac)-AMC fluorescence assay. Type of test: biochemical. To be noted: Assay 2, bracketed [ ] data; Boc-Lys(Ac)-AMC substrate. How it is done:
In the alternative, the following protocol was used to assay the compounds of the invention. In the assay, the buffer used was 25 mM HEPES, pH 8.0, 137 mM NaCl, 2.7 mM KCl, 1 mM MgCl2 and the subtrate was Boc-Lys(Ac)-AMC in a 50 mM stock solution in DMSO. The enzyme stock solution was 4.08 μg/mL in buffer.
The compounds were pre-incubated (2 μl in DMSO diluted to 13 μl in buffer for transfer to assay plate) with enzyme (20 μl of 4.08 μg/ml) for 10 minutes at room temperature (35 μl pre-incubation volume). The mixture was pre-incubated for 5 minutes at room temperature. The reaction was started by bringing the temperature to 37° C. and adding […] substrate. Total reaction volume was 50 μl. The reaction was stopped after 20 minutes by addition of 50 μl developer, prepared as directed by Biomol (Fluor-de-Lys developer, Cat. # KI-105). A plate was incubated in the dark for 10 minutes at room temperature before reading (λEX=360 nm, λEx=470 nm, Cutoff filter at 435 nm).
IC50 values for representative compounds assayed using this procedure are presented in the third column of Table 9 (bracketed [ ] data).

In test [2] the test system is HCT116 cells. The test is described as follows: MTT assay. The test is classed as cell-based. Conditions: Homo sapiens, HCT-116, 72 hours. How it is done:
HCT116 cells (2000/well) were plated into 96-well tissue culture plates one day before compound treatment. Compounds at various concentrations were added to the cells. The cells were incubated for 72 hours at 37° C. in 5% CO2 incubator. MTT (3-[4,5-dimethylthiazol-2-yl]-2,5 diphenyl tetrazolium bromide, Sigma) was added at a final concentration of 0.5 mg/ml and incubated with the cells for 4 hours before one volume of solubilization buffer (50% N,N-dimethylformamide, 20% SDS, pH 4.7) was added onto the cultured cells. After overnight incubation, solubilized dye was quantified by colorimetric reading at […] using a reference at […] using an MR700 plate reader (Dynatech Laboratories Inc.). OD values were converted to cell numbers according to a standard growth curve of the relevant cell line. The concentration which reduces cell numbers to 50% of that of solvent treated cells is determined as MTT IC50. IC50 values for representative compounds are presented in the fourth column of Tables 7–10.

In test [3] the test system is acetylated histone H-4 in T24 human bladder cancer cells. As to the kind of experiment: Histone H4 acetylation in whole cells by immunoblots. The test is classed as cell-based. Conditions: 16 h, immunoblot densitometry, read-out: H4 Ac (T24) EC50. How it is done:
T24 human bladder cancer cells growing in culture were incubated with HDAC inhibitors for 16 h. Histones were extracted from the cells after the culture period as described by M. Yoshida et al. (J. Biol. Chem. 265(28): 17174–17179 (1990)). […] of total histone protein was loaded onto SDS/PAGE and transferred to nitrocellulose membranes. Membranes were probed with polyclonal antibodies specific for acetylated histone H-4 (Upstate Biotech Inc.), followed by horse radish peroxidase conjugated secondary antibodies (Sigma). Enhanced Chemiluminescence (ECL) (Amersham) detection was performed using Kodak films (Eastman Kodak). Acetylated H-4 signal was quantified by densitometry. Representative data are presented in the fifth column of Table 7–10. Data are presented as the concentration effective for […] the acetylated H-4 signal by 50% (EC50).
In general terms: A western blot detects proteins with antibodies after separation by electrophoresis.

For test [4], the target named is T1, cloned recombinant human HDAC-1 (Homo sapiens, UniProt Q13547).
T1 construct: made in house; host or cells: Baculovirus insect cell expression system
As to the kind of experiment: Human HDAC-1 Assay 1: [3H]-acetylated histone deacetylase assay. The test is classed as biochemical. To be noted: Assay 1, unbracketed data; [3H]-acetylated histone substrate, 10 min at 37° C. How it is done:
HDAC inhibitors were screened against a cloned recombinant human HDAC-1 enzyme expressed and purified from a Baculovirus insect cell expression system. For deacetylase assays, 20,000 cpm of the [^3H]-metabolically labeled acetylated histone substrate (M. Yoshida et al., J. Biol. Chem. 265(28): 17174–17179 (1990)) was incubated with 30 μg of the cloned recombinant hHDAC-1 for 10 minutes at 37° C. The reaction was stopped by adding acetic acid (0.04 M, final concentration) and HCl (250 mM, final concentration). […] For inhibition studies, the enzyme was preincubated with compounds at 4° C. for 30 minutes prior to initiation of the enzymatic assay. IC50 values for HDAC enzyme inhibitors were determined by performing dose response curves with individual compounds and determining the concentration of inhibitor producing fifty percent of the maximal inhibition. IC50 values for representative compounds assayed using this procedure are presented in the third column of Tables 7–10 (excepting bracketed data).

In test [5] the test system is HCT116 human colorectal carcinoma cells. The test is described as follows: Antineoplastic effects on human tumor xenografts in vivo. The arrangement: species or system CD1 nude mice. To be noted: HCT116 xenograft, daily injection i.v., s.c. or i.p., starting dose 10 mg/kg. How it is done: Eight to ten week old female CD1 nude mice (Taconic Labs, Great Barrington, N.Y.) were injected subcutaneously in the flank area with 2×10^6 preconditioned HCT116 human colorectal carcinoma cells. Preconditioning of these cells was done by a minimum of three consecutive tumor transplantations in the same strain of nude mice. Subsequently, tumor fragments of approximately 30 mgs were excised and implanted subcutaneously in mice, in the left flank area, under Forene anesthesia (Abbott Labs, Geneva, Switzerland). When the tumors reached a mean volume of 100 mm^3, the mice were treated intravenously, subcutaneously, or intraperitoneally by daily injection, with a solution of the histone deacetylase inhibitor in an appropriate vehicle, such as PBS, DMSO/water, or Tween 80/water, at a starting dose of 10 mg/kg. The optimal dose of the HDAC inhibitor was established by dose response experiments according to standard protocols. Tumor volume was calculated every second day post infusion according to standard methods (e.g., Meyer et al., Int. J. Cancer 43: 851–856 (1989)).
In general terms: In xenograft studies the graft and the host belong to different species.

T1 sequence (Q13547 whole entry): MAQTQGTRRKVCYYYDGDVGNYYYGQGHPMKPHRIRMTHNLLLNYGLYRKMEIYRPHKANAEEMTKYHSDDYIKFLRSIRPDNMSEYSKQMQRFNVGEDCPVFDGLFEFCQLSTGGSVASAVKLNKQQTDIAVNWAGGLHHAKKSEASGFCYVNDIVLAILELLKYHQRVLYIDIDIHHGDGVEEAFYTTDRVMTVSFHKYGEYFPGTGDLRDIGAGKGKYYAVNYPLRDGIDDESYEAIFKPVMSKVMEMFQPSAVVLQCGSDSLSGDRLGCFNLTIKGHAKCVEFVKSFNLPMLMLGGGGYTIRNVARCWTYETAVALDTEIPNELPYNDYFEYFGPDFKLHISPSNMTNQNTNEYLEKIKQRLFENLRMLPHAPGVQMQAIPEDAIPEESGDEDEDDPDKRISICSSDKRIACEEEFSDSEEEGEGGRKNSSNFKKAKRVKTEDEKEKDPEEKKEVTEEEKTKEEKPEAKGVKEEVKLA
Human HDAC-1, sequence (Q13547 whole entry): as above

For `Nc1ccccc1NC(=O)c1ccc(/C=C/CN2CCN(c3ccccn3)CC2)cc1` [XXXc, N-(2-Amino-phenyl)-4-[3-(4-pyridin-2-yl-piperazin-1-yl)-propenyl]-benzamide], the IC50 (commonly the concentration that gives 50% inhibition) came to 820 nM in test [1] and 500 nM in test [2]. Also, the EC50 (commonly the midpoint of the concentration-response curve) in test [3] worked out at 2000 nM.

Regarding `Nc1ccccc1NC(=O)c1ccc(/C=C/CN2Cc3ccccc3C2)cc1` [XXXa, N-(2-Amino-phenyl)-4-[3-(1,3-dihydro-isoindol-2-yl)-propenyl]-benzamide], the IC50 in test [1] came to 260 nM; in test [2], 1000 nM. In test [3], the EC50 is 4000 nM.

As for `Nc1ccccc1NC(=O)c1ccc(/C=C/CNc2nccc(-c3cccnc3)n2)cc1` [XVj, N-(2-Amino-phenyl)-4-[3-(4-pyridin-3-yl-pyrimidin-2-ylamino)-propenyl]-benzamide], the IC50 was 2000 nM in test [4] and 200 nM in test [2]. Further, in test [3], the EC50 is less than 1000 nM. Besides, the “reduction in tumor weight and volume relative to vehicle controls” value in test [5] is “significant reduction in tumor weight and volume”.

Turning to `Nc1ccccc1NC(=O)c1ccc(/C=C/CNC2Cc3ccccc3C2)cc1` [XXXe, N-(2-Amino-phenyl)-4-[3-(indan-2-ylamino)-propenyl]-benzamide], the IC50 in test [1] stood at 790 nM; in test [2] it was 2000 nM.

As for `Nc1ccccc1NC(=O)c1ccc(/C=C/CNCc2cccnc2)cc1` [XVh, N-(2-Amino-phenyl)-4-{3-[(pyridin-3-ylmethyl)-amino]propenyl}-benzamide], the values for the IC50 in test [4] and in test [2] were 4000 nM and 700 nM, respectively. Besides, in test [3], the 50% effective concentration (EC50) was 2000 nM.

Take `COc1cc(C)nc(NC/C=C/c2ccc(C(=O)Nc3ccccc3N)cc2)n1` [XVd, N-(2-Amino-phenyl)-4-[3-(4-methoxy-6-methyl-pyrimidin-2-ylamino)-propenyl]-benzamide]: the values for the IC50 in test [4] and in test [2] were 4000 nM and 300 nM, respectively. Moreover, the EC50 in test [3] was 3000 nM.

Regarding `Nc1ccccc1NC(=O)c1ccc(C(=O)/C=C/c2cccnc2)cc1` [Ib, N-(2-Amino-phenyl)-4-(3-pyridin-3-yl-acryloyl)-benzamide], the values for the IC50 in test [4] and in test [2] were 2000 nM and 900 nM, respectively. For the same compound, in test [3], the EC50 was 5000 nM.

Turning to `Nc1ccccc1NC(=O)c1ccc(/C=C/CNc2nc3ccccc3s2)cc1` [XVc, N-(2-Amino-phenyl)-4-[3-(benzothiazol-2-ylamino)-propenyl]-benzamide], the IC50 in test [4] was found to be 800 nM; in test [2] it was 1000 nM. For the same compound, in test [3], the EC50 is less than 1000 nM.

For the compound `Nc1ccccc1NC(=O)c1ccc(/C=C/C(=O)NCCc2ccccn2)cc1` [Vi, N-(2-Amino-phenyl)-4-[2-(2-pyridin-2-yl-ethylcarbamoyl)-vinyl]-benzamide], the IC50 in test [4] came out at 4000 nM; in test [2] it was 1000 nM. Further, the EC50 in test [3] was determined as 3000 nM.

Turning to `CN(C/C=C/c1ccc(C(=O)Nc2ccccc2N)cc1)Cc1ccccc1` [XXXd, N-(2-Amino-phenyl)-4-[3-(benzyl-methyl-amino)-propenyl]-benzamide], the IC50 was found to be 170 nM in test [1] and 2000 nM in test [2].
